Test results from US12508278B2, “Lipid nanoparticle compositions and methods of formulating the same” (ModernaTX, Inc., priority 2021, dated 2025).
Values belong to the compound of their own block, whether it stands above or below them.

Assays:
Assay type in all cases: physicochemical
[1] = IG (lipid-mRNA adduct impurity) in binary mixtures of RNA and Compound III, ion pair reversed phase HPLC; conditions: for level of IG compared to control binary mixtures: 1 mM agent; for initial rate of IG formation: 5 mM agent, Compound III binaries
From the text: To detect and quantify the amount of IG present in LNP formulations comprising polynucleotides and lipid, a protocol was developed (FIG. 2) that included (1) extraction of the polynucleotide molecules (e.g. precipitation, liquid: liquid extraction); (2) assessment of integrity (e.g. purity, length) of the isolated polynucleotides by known methods (e.g. fragment analyzer, gel electrophoresis); and (3) analysis of the isolated polynucleotides by HPLC.
(§1) RNA was extracted from the LNP formulation by precipitation in ammonium acetate in isopropanol; resuspended in water to target a final RNA concentration of 0.1 mg/mL; and assessed by fragment analyzer capillary electrophoresis and ion pair reversed phase HPLC (performed on a Thermo DNApac RP 100×2.1 mm column at 65° C., with mobile phases containing 50 mM dibutylammonium acetate and 100 mM triethylammonium acetate in water and acetonitrile). Elution with an acetonitrile gradient provided an RNA separation primarily driven by mRNA length and sensitive to any added hydrophobic elements. Two prominent peaks were apparent on the HPLC chromatogram (FIG. 2), including a “main peak” comprising non-adduct mRNA and an “IG” peak comprising mRNA with one or more covalent modifications. The mass fraction of RNA containing at least one lipid adduct was determined by integrating the area under the curve (AUC) of all RNA peaks (including products shorter than the full-length product, the full-length product, and the hydrophobic modified RNA) and taking the late-eluting region as an area percent of the total peak area.
Compound III was dissolved in ethanol at a concentration of 4 mg/mL, and the RNA diluted in sodium acetate buffer pH 5.5; the RNA and lipids were then mixed in 25% ethanol. Samples were held at 25° C., and the RNA was periodically extracted by precipitation in isopropanol and analyzed by ion pair reversed phase (FIGS. 5 and 6A, data marked by *).

[2] = IG in Compound III LNPs buffered with PBS or Tris
[3] = IG in Compound VI LNPs stored in PBS or Tris; conditions: 20 mM Tris, 8% sucrose, pH 8 vs 1xPBS pH 7.2, stored at 5 C
[4] = IG in binary mixtures of RNA and Compound VI, ion pair reversed phase HPLC; conditions: control binary mixture
Experimental: as §1
To determine if treatment with reducing agents or anti-oxidants confers reductions in the percentage of IG formed in binary mixtures of RNA and Compound VI, binary mixtures were prepared with RNA and Compound VI in which the RNA component was prepared with select reducing agents at 5 mM concentration and the percentage of IG in the resulting binary mixtures was quantified according to the protocol detailed in Example 1. The control binary mixtures of RNA and Compound VI contained IG at ˜55 percent after 1 day, ˜70 percent after 2 days, and ˜80 percent after 13 days. In contrast, treatment of binary mixtures of RNA and Compound VI with select reducing agents conferred IG at ˜45 percent after 1 day, ˜55% after 2 days, and ˜60-70% after 13 days (FIG. 17).

- level of IG compared to control binary mixtures ([1]; 25 C, after 18 hours): reduced levels of IG
Compound: O[C@H](CS)[C@@H](O)CS [DTE, dithioerythritol]

Compound: Clc1ccc(C(c2ccc(Cl)cc2)C(Cl)(Cl)Cl)cc1 [DDT, dichlorodiphenyltrichloroethane]
- level of IG compared to control binary mixtures ([1]; 25 C, after 18 hours): reduced levels of IG

- level of IG compared to control binary mixtures ([1]; 25 C, after 18 hours): reduced levels of IG
Compound: [BH4-].[Na+] [sodium borohydrate]

- level of IG compared to control binary mixtures ([1]; 25 C, after 18 hours): reduced levels of IG
Compound: N[C@@H](CCC(=O)N[C@@H](CS)C(=O)NCC(=O)O)C(=O)O [glutathione]

- percentage of IG, Tris compared to PBS ([2]; 100 mM Tris-HCl pH 7.4 vs 1xPBS): lower
- percentage of IG over time ([2]; buffered with Tris (100 mM Tris-HCl pH 7.4), stored at 5 C or 20 C): around 10%
- IG formation over time ([1]; chromatographically purified Compound III, up to 99% purity, no detectable N-oxide): still formed IG over time
- percentage of IG ([1]; control binary mixture (Example 6), stored at 25 C, after 1 day): ~15%
- percentage of IG ([1]; control binary mixture (Example 6), stored at 25 C, after 3 days): ~35%
- percentage of IG ([1]; control binary mixture (Example 6), stored at 25 C, after 7 days): ~40%
- percentage of IG ([1]; control binary mixture (Example 11), 25 C, after 18 hours): ~20%
- percentage of IG ([1]; control binary mixture without agent (Example 7), 25 C, after 18 hours): ~35%
- percentage of IG ([1]; control binary mixture without agent (Example 7), after 13 days at 25 C): ~45%
- percentage of IG ([1]; control binary mixture, Compound III not pre-treated (Example 5), after 0 days): ~10%
- percentage of IG ([1]; control binary mixture, Compound III not pre-treated (Example 5), after 5 days): ~40%
- percentage of IG ([1]; control binary mixture, Compound III not pre-treated (Example 5), after 25 days): ~45%
Compound: CCCCCCCCCCCOC(=O)CCCCCN(CCO)CCCCCCCC(=O)OC(CCCCCCCC)CCCCCCCC [Compound III, heptadecan-9-yl 8-((2-hydroxyethyl)(6-oxo-6-(undecyloxy)hexyl)amino)octanoate]

- level of IG compared to control binary mixtures ([1]; 25 C, after 18 hours): reduced levels of IG
Compound: NCCSSCCN [cystamine]

- level of IG compared to control binary mixtures ([1]; 25 C, after 18 hours): reduced levels of IG
Compound: O[C@H](CS)[C@H](O)CS [DTT, dithiothreitol]

- level of IG compared to control binary mixtures ([1]; 25 C, after 18 hours): reduced levels of IG
Compound: CC(=O)N[C@@H](CS)C(=O)O [N-acetyl cysteine]
- initial rate of IG formation [1]: effective at eliminating the fast initial rate of IG formation

Compound: O=S([O-])([O-])=S.[Na+].[Na+] [sodium thiosulfate]
- level of IG compared to control binary mixtures ([1]; 25 C, after 18 hours): reduced levels of IG

- level of IG compared to control binary mixtures ([1]; 25 C, after 18 hours): reduced levels of IG
Compound: O=C(O)CCCC[C@@H]1CCSS1 (racemic) [lipoic acid]

- percentage of IG, Tris compared to PBS [3]: lower
- percentage of IG ([4]; after 1 day): ~55%
- percentage of IG ([4]; after 2 days): ~70%
- percentage of IG ([4]; after 13 days): ~80%
Compound: CCCCCCCCCN(CCCCCCCCC)CCN(CCCCCCCCC)CC(=O)N1CCN(C(=O)CN(CCCCCCCCC)CCCCCCCCC)CC1 [Compound VI]

- level of IG compared to control binary mixtures ([1]; 25 C, after 18 hours): reduced levels of IG
Compound: N[C@@H](CCS)C(=O)O [homo cysteine, homocysteine]

Compound: O=S([O-])S(=O)(=O)[O-].[Na+].[Na+] [sodium metabisulfite]
- initial rate of IG formation [1]: effective at eliminating the fast initial rate of IG formation
- percentage of IG ([1]; higher concentrations of agent before formulation, removed by dialysis with 20 mM Tris, t=0 h and 24 hours): reduced

Compound: O=C(O)CCP(CCC(=O)O)CCC(=O)O [TCEP, tris(2-carboxyethyl)phosphine]
- level of IG compared to control binary mixtures ([1]; 25 C, after 18 hours): reduced levels of IG

Compound: O=S([O-])S(=O)(=O)[O-].[K+].[K+] [potassium metabisulfite]
- level of IG compared to control binary mixtures ([1]; 25 C, after 18 hours): reduced levels of IG
- initial rate of IG formation [1]: effective at eliminating the fast initial rate of IG formation

Compound: O=C([O-])CS.[Na+] [sodium thioglycolate]
- level of IG compared to control binary mixtures ([1]; 25 C, after 18 hours): reduced levels of IG
